# Measurements as given in patent US6563014B2, “Self-contained system for sustained viral replication” (Albert Einstein College of Medicine of Yeshiva University, priority 1999, dated 2003).
# Test system: HIV-1
# Test: Effect of protease inhibitor treatment on plasma HIV RNA levels in transgenic mice
# Type: in vivo
# From the text: (iv) Quantitation of plasma HIV RNA levels: HIV RNA in the mouse plasma was quantitated by using the Roche AMPLICOR HIV-1 MONITOR™ kits (Roche Diagnostic Systems, Branchburg, N.J.) which can measure virion associated HIV-1 RNA in plasma at concentrations as low as 400 RNA copies/ml as described (Pettoello-Mantovani, M., et al., J. Infect. Dis.1 77:337-346, 1998). After plasma was isolated from the peripheral blood of the JR-CSF TG mice, an internal HIV quantitation standard (QS), a synthetic RNA molecule with primer binding sites identical to the HIV target and an internal probe sequence specific to the QS RNA molecule, was added to 200 μl of each plasma sample. RNA was then extracted from the plasma samples with a Lysis Reagent containing guanidine thiocyanate, precipitated with isopropanol, resuspended in reaction buffer and a 142 base pair sequence in the HIV gag gene was amplified by reverse transcription and PCR using rtth pol and biotinylated primers SK431 and SK462. In order to prevent PCR product contamination, dUTP was incorporated during the PCR reaction and then all of the samples were treated with AmpErase prior to PCR to eliminate carryover of any dUTP-containing PCR product. The biotinylated HIV and QS amplicons were quantitated by detection in separate wells of a microwell plate coated with HIV-specific and QS-specific oligonucleotide probes, respectively, using avidin-horseradish peroxidase conjugate and a calorimetric reaction for horseradish peroxidase. The HIV and QS amplicons were measured in a dynamic range from 400 to 750,000 copies/ml by performing 5-fold serial dilutions of the amplicons in the HIV-specific and QS-specific wells of the microplate (rows A to F and G to H, respectively). The HIV RNA copy number was then calculated from the known input copy number of the QS RNA, the optical densities at 450 nm of the HIV-well and the QS-well that fell within a defined range, and the dilution factors associated with the selected wells.
# First, the mean plasma viral levels in the hu-CD4/CCR5/JRCSF TG mice are higher that in the JR-CSF TG mice. […]
# [1] = hu-CD4/CCR5/JRCSF TG mice, FIG. 14
structure (smiles),measurement,setting,value
"CC(C)c1nc(CN(C)C(=O)N[C@H](C(=O)N[C@@H](Cc2ccccc2)C[C@H](O)[C@H](Cc2ccccc2)NC(=O)OCc2cncs2)C(C)C)cs1 [protease inhibitor, ritonavir]",plasma viremia after treatment with a protease inhibitor,JR-CSF TG mice,did not decrease and actually went up
same,plasma HIV RNA levels after the protease inhibitor was stopped,[1],went back up
same,plasma HIV RNA levels after treatment with the protease inhibitor,[1],markedly decreased
